In ChEMBL document CHEMBL3885861, “Open TG-GATES”:

Species on record: Rattus norvegicus
Test: Open TG-GATES - Regimen: Single
Format: toxicity, organism-based, Sprague-Dawley
Design: regimen Single, gender Male, age 6 weeks
Conditions: in vivo, po, route gavage; for APTT / Bas / Eos / Fbg / Hb / Ht / Lym / MCH / MCHC / MCV / Mono / Neu / PT / Plat / RBC / Ret / WBC: tissue Blood; for KIDNEY_L / KIDNEY_R / KIDNEY_TOTAL: tissue Kidney; for LIVER: tissue Liver; for A/G / ALP / ALT / AST / BUN / CRE / Ca / Cl / DBIL / GLC / IP / K / LDH / Na / PL / RALB / TBIL / TC / TG / TP / gamma-GTP: tissue Plasma
[1] = 0 mg/kg, 3 h, dose level Control
[2] = 0 mg/kg, 6 h, dose level Control
[3] = 0 mg/kg, 9 h, dose level Control
[4] = 0 mg/kg, 24 h, dose level Control

## C[C@]12CCC(=O)C=C1CC[C@@H]1[C@@H]2CC[C@@]2(C)[C@H]1CC[C@]2(C)O [METHYLTESTOSTERONE]
[1]
  TERMINAL_BW: 202.4 g
  APTT: 15.7 s
  Bas: 0%
  Eos: 1%
  Fbg: 277 mg/dL
  Hb: 13.3 g/dL
  Ht: 39%
  Lym: 74.2%
  MCH: 21.5 pg
  MCHC: 34%
  MCV: 63.3 fL
  Mono: 3.6%
  Neu: 20.6%
  PT: 13.2 s
  Plat: 111.8 x10_4/uL
  RBC: 616.6 x10_4/ul
  Ret: 8.5%
  WBC: 71.2 x10_2/uL
  KIDNEY_L: 0.9 g
  KIDNEY_R: 0.9 g
  KIDNEY_TOTAL: 1.8 g
  LIVER: 8.7 g
  A/G: 0.9
  ALP: 1644.6 IU/L
  ALT: 45.4 IU/L
  AST: 80.2 IU/L
  BUN: 9.6 mg/dL
  CRE: 0.2 mg/dL
  Ca: 10.9 mg/dL
  Cl: 105.6 meq/L
  DBIL: 0.01 mg/dL
  GLC: 182.8 mg/dL
  IP: 9.8 mg/dL
  K: 4.4 meq/L
  LDH: 59.4 IU/L
  Na: 142 meq/L
  PL: 136.4 mg/dL
  RALB: 2.6 g/dL
  TBIL: 0.038 mg/dL
  TC: 86.2 mg/dL
  TG: 31.8 mg/dL
  TP: 5.5 g/dL
  gamma-GTP: 1.6 IU/L
[2]
  TERMINAL_BW: 202.9 g
  APTT: 17.1 s
  Bas: 0%
  Eos: 0.8%
  Fbg: 299 mg/dL
  Hb: 13.1 g/dL
  Ht: 38.7%
  Lym: 75.6%
  MCH: 21.5 pg
  MCHC: 34%
  MCV: 63.4 fL
  Mono: 3.6%
  Neu: 19.4%
  PT: 13.2 s
  Plat: 112.5 x10_4/uL
  RBC: 612 x10_4/ul
  Ret: 8.2%
  WBC: 68.1 x10_2/uL
  KIDNEY_L: 0.9 g
  KIDNEY_R: 0.9 g
  KIDNEY_TOTAL: 1.7 g
  LIVER: 8.5 g
  A/G: 0.9
  ALP: 1516.2 IU/L
  ALT: 41.8 IU/L
  AST: 72.4 IU/L
  BUN: 9 mg/dL
  CRE: 0.2 mg/dL
  Ca: 10.8 mg/dL
  Cl: 108 meq/L
  DBIL: 0.012 mg/dL
  GLC: 185.4 mg/dL
  IP: 10.1 mg/dL
  K: 4.1 meq/L
  LDH: 65.6 IU/L
  Na: 142.2 meq/L
  PL: 133.4 mg/dL
  RALB: 2.6 g/dL
  TBIL: 0.046 mg/dL
  TC: 79.8 mg/dL
  TG: 40.6 mg/dL
  TP: 5.5 g/dL
  gamma-GTP: 1.4 IU/L
[3]
  TERMINAL_BW: 203.4 g
  APTT: 16.8 s
  Bas: 0%
  Eos: 1%
  Fbg: 285.6 mg/dL
  Hb: 13.2 g/dL
  Ht: 38.5%
  Lym: 74.4%
  MCH: 21.3 pg
  MCHC: 34.2%
  MCV: 62.4 fL
  Mono: 3%
  Neu: 21.2%
  PT: 12.8 s
  Plat: 108.1 x10_4/uL
  RBC: 616.6 x10_4/ul
  Ret: 8.5%
  WBC: 59.4 x10_2/uL
  KIDNEY_L: 0.9 g
  KIDNEY_R: 0.9 g
  KIDNEY_TOTAL: 1.8 g
  LIVER: 7.9 g
  A/G: 0.9
  ALP: 1387.4 IU/L
  ALT: 42.2 IU/L
  AST: 76.2 IU/L
  BUN: 7.4 mg/dL
  CRE: 0.2 mg/dL
  Ca: 10.4 mg/dL
  Cl: 105.2 meq/L
  DBIL: 0.01 mg/dL
  GLC: 171.4 mg/dL
  IP: 10.6 mg/dL
  K: 4.1 meq/L
  LDH: 60.6 IU/L
  Na: 141 meq/L
  PL: 137.4 mg/dL
  RALB: 2.5 g/dL
  TBIL: 0.044 mg/dL
  TC: 90.2 mg/dL
  TG: 23 mg/dL
  TP: 5.4 g/dL
  gamma-GTP: 1.4 IU/L
[4]
  TERMINAL_BW: 210.8 g
  APTT: 17.4 s
  Bas: 0%
  Eos: 1%
  Fbg: 275 mg/dL
  Hb: 13.2 g/dL
  Ht: 38.6%
  Lym: 76%
  MCH: 21.7 pg
  MCHC: 34.2%
  MCV: 63.6 fL
  Mono: 2.8%
  Neu: 19.6%
  PT: 12.9 s
  Plat: 111.5 x10_4/uL
  RBC: 607.4 x10_4/ul
  Ret: 8.1%
  WBC: 74.8 x10_2/uL
  KIDNEY_L: 0.9 g
  KIDNEY_R: 0.9 g
  KIDNEY_TOTAL: 1.9 g
  LIVER: 9.8 g
  A/G: 0.9
  ALP: 1818.4 IU/L
  ALT: 48.4 IU/L
  AST: 74.2 IU/L
  BUN: 14.8 mg/dL
  CRE: 0.2 mg/dL
  Ca: 11.1 mg/dL
  Cl: 106.2 meq/L
  DBIL: 0.02 mg/dL
  GLC: 194.2 mg/dL
  IP: 8.1 mg/dL
  K: 4.3 meq/L
  LDH: 63.4 IU/L
  Na: 140.8 meq/L
  PL: 149.8 mg/dL
  RALB: 2.7 g/dL
  TBIL: 0.036 mg/dL
  TC: 80.8 mg/dL
  TG: 114.6 mg/dL
  TP: 5.7 g/dL
  gamma-GTP: 1.4 IU/L
30 mg/kg, 3 h, dose level Low
  TERMINAL_BW: 203.4 g
  APTT: 15.6 s
  Bas: 0%
  Eos: 1%
  Fbg: 292.4 mg/dL
  Hb: 12.7 g/dL
  Ht: 37.1%
  Lym: 77%
  MCH: 21.2 pg
  MCHC: 34.2%
  MCV: 61.9 fL
  Mono: 3.8%
  Neu: 17%
  PT: 13.1 s
  Plat: 105.6 x10_4/uL
  RBC: 599 x10_4/ul
  Ret: 8.5%
  WBC: 69.9 x10_2/uL
  KIDNEY_L: 0.9 g
  KIDNEY_R: 0.9 g
  KIDNEY_TOTAL: 1.8 g
  LIVER: 8.6 g
  A/G: 0.9
  ALP: 1715.8 IU/L
  ALT: 48.8 IU/L
  AST: 82.6 IU/L
  BUN: 9.8 mg/dL
  CRE: 0.2 mg/dL
  Ca: 11 mg/dL
  Cl: 106 meq/L
  DBIL: 0.012 mg/dL
  GLC: 181.8 mg/dL
  IP: 9.1 mg/dL
  K: 4.4 meq/L
  LDH: 76.6 IU/L
  Na: 141.4 meq/L
  PL: 131 mg/dL
  RALB: 2.5 g/dL
  TBIL: 0.048 mg/dL
  TC: 72.8 mg/dL
  TG: 41.8 mg/dL
  TP: 5.4 g/dL
  gamma-GTP: 1 IU/L
30 mg/kg, 6 h, dose level Low
  TERMINAL_BW: 202.1 g
  APTT: 17 s
  Bas: 0.2%
  Eos: 1%
  Fbg: 281 mg/dL
  Hb: 13.2 g/dL
  Ht: 38.6%
  Lym: 74.8%
  MCH: 21.4 pg
  MCHC: 34.1%
  MCV: 62.9 fL
  Mono: 3%
  Neu: 20.8%
  PT: 13.3 s
  Plat: 112.5 x10_4/uL
  RBC: 614.8 x10_4/ul
  Ret: 8.1%
  WBC: 69.8 x10_2/uL
  KIDNEY_L: 0.9 g
  KIDNEY_R: 0.9 g
  KIDNEY_TOTAL: 1.8 g
  LIVER: 8 g
  A/G: 0.9
  ALP: 1451.8 IU/L
  ALT: 44.8 IU/L
  AST: 77.4 IU/L
  BUN: 9.4 mg/dL
  CRE: 0.2 mg/dL
  Ca: 10.7 mg/dL
  Cl: 107.2 meq/L
  DBIL: 0.01 mg/dL
  GLC: 181 mg/dL
  IP: 10 mg/dL
  K: 4.2 meq/L
  LDH: 68.2 IU/L
  Na: 142.2 meq/L
  PL: 120.8 mg/dL
  RALB: 2.6 g/dL
  TBIL: 0.042 mg/dL
  TC: 70.6 mg/dL
  TG: 32.8 mg/dL
  TP: 5.4 g/dL
  gamma-GTP: 1.2 IU/L
30 mg/kg, 9 h, dose level Low
  TERMINAL_BW: 203.1 g
  APTT: 16.9 s
  Bas: 0%
  Eos: 1%
  Fbg: 287.4 mg/dL
  Hb: 13.2 g/dL
  Ht: 38.3%
  Lym: 77.2%
  MCH: 21.4 pg
  MCHC: 34.6%
  MCV: 61.7 fL
  Mono: 2.6%
  Neu: 18.4%
  PT: 13.3 s
  Plat: 113.2 x10_4/uL
  RBC: 620.8 x10_4/ul
  Ret: 8.2%
  WBC: 66.5 x10_2/uL
  KIDNEY_L: 0.9 g
  KIDNEY_R: 0.9 g
  KIDNEY_TOTAL: 1.7 g
  LIVER: 7.8 g
  A/G: 0.9
  ALP: 1527.6 IU/L
  ALT: 39.2 IU/L
  AST: 74.6 IU/L
  BUN: 8.8 mg/dL
  CRE: 0.2 mg/dL
  Ca: 10.6 mg/dL
  Cl: 107.6 meq/L
  DBIL: 0.01 mg/dL
  GLC: 185.2 mg/dL
  IP: 10.9 mg/dL
  K: 3.9 meq/L
  LDH: 65.6 IU/L
  Na: 142.8 meq/L
  PL: 120 mg/dL
  RALB: 2.6 g/dL
  TBIL: 0.054 mg/dL
  TC: 68.4 mg/dL
  TG: 26 mg/dL
  TP: 5.4 g/dL
  gamma-GTP: 1.6 IU/L
30 mg/kg, 24 h, dose level Low
  TERMINAL_BW: 208 g
  APTT: 19.7 s
  Bas: 0%
  Eos: 0.8%
  Fbg: 277 mg/dL
  Hb: 13 g/dL
  Ht: 37.9%
  Lym: 77%
  MCH: 21 pg
  MCHC: 34.2%
  MCV: 61.3 fL
  Mono: 2.8%
  Neu: 19%
  PT: 13.1 s
  Plat: 120.3 x10_4/uL
  RBC: 619.4 x10_4/ul
  Ret: 7.5%
  WBC: 80.6 x10_2/uL
  KIDNEY_L: 0.9 g
  KIDNEY_R: 0.9 g
  KIDNEY_TOTAL: 1.8 g
  LIVER: 9.4 g
  A/G: 0.9
  ALP: 1796.2 IU/L
  ALT: 55.8 IU/L
  AST: 81.2 IU/L
  BUN: 13.8 mg/dL
  CRE: 0.2 mg/dL
  Ca: 11.1 mg/dL
  Cl: 106.8 meq/L
  DBIL: 0.016 mg/dL
  GLC: 184.6 mg/dL
  IP: 8.3 mg/dL
  K: 4.1 meq/L
  LDH: 82 IU/L
  Na: 141.4 meq/L
  PL: 134.2 mg/dL
  RALB: 2.7 g/dL
  TBIL: 0.028 mg/dL
  TC: 68.2 mg/dL
  TG: 84.2 mg/dL
  TP: 5.7 g/dL
  gamma-GTP: 1 IU/L
